From PubChem BioAssay (NCI)
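Cultured in 96-well plates, cells were exposed to test compound for 48 hours across five concentrations. TGI: total growth inhibition.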

Legend:
Assay in all cases: growth of human tumour cells (NCI), 48 h
[1] = tested on: COLO 205 colon
[2] = tested on: DU-145 prostate
[3] = tested on: HCC-2998 colon
[4] = tested on: M14 melanoma
[5] = tested on: MDA-MB-231 breast
[6] = tested on: OVCAR-3 ovarian
[7] = tested on: OVCAR-4 ovarian
[8] = tested on: RXF 393 renal
[9] = tested on: UO-31 renal

Row | Compound | TGI [1] [µM] | TGI [2] [µM] | TGI [3] [µM] | TGI [4] [µM] | TGI [5] [µM] | TGI [6] [µM] | TGI [7] [µM] | TGI [8] [µM] | TGI [9] [µM]
1 | CC(C#N)(NO)C(C)(C#N)NO (configuration not stated) | > 100 | > 100 | > 100 | > 100 | > 100 | > 100 | > 100 | > 100 | > 100
2 | CCC(C)C(Nc1c2ccccc2nc2c(C(=O)NCCN(C)C)cccc12)C(=O)O (configuration not stated) | > 100 | > 100 |  | 44.1 | 65.5 | > 100 | 25.8 |  | 81.5
3 | COc1cc(/C=C/C(=O)CC(=O)/C=C/c2cc(C)c(O)c(OC)c2)cc(C)c1O | > 100 | > 100 | > 100 | > 100 | > 100 | > 100 | > 100 |  | > 100
4 | COC(=O)[C@@]12CSC[C@]1(C(=O)OC)N[C@@H](c1ccccc1O)C2 | > 100 | > 100 | > 100 | > 100 |  | > 100 | > 100 | > 100 | > 100
5 | Cc1cn(S(=O)(=O)c2ccccc2)c2c(OCc3ccccc3)cc([N+](=O)[O-])cc12 | > 100 | > 100 | > 100 | > 100 | > 100 | > 100 | > 100 | > 100 | > 100
6 | COc1ccc(-c2c(C#N)c(N)[nH]c(=S)c2C#N)cc1 | > 100 | > 100 | 72.2 | > 100 | > 100 | > 100 | > 100 | 98.3 | > 100
7 | O=C(COc1cc(=O)oc2ccccc12)c1ccccc1 |  | > 100 | > 100 | > 100 | > 100 | 39.9 | > 100 |  | 
8 | O=C1OC(C(O)CO)C(C(O)CO)OC1=O (configuration not stated) | > 10 |  | > 10 | > 10 | > 10 | > 10 | > 10 | > 10 | > 10
9 | N=c1oc2cc(O)ccc2cc1C(=O)Nc1ccccn1 | 32.8 | 61 | > 100 | > 100 | > 100 | > 100 | > 100 | 99.7 | 
10 | Cc1[nH]c(=O)nc(N/N=C/c2c3ccccc3c(Cl)c3ccccc23)c1C(=O)Nc1ccc(Cl)cc1 |  | > 100 | > 100 | > 100 | > 100 | > 100 | > 100 |  | > 100
11 | COc1ccc(C2=C(OC(C)=O)c3cccn3-c3ccc(Cl)cc3S2)cc1 | > 10 | > 10 | > 10 | > 10 | > 10 |  | > 10 | > 10 | 
12 | Cc1cc2ncn(CC(=O)O)c2cc1C | > 100 | > 100 |  | > 100 | > 100 | > 100 | > 100 | > 100 | > 100
13 | COC(=O)c1ccc(OCCn2nnc(C(=O)NN)c2C(=O)NN)cc1 | > 100 | > 100 | > 100 | > 100 | > 100 | > 100 | > 100 |  | > 100
14 | O=C(NC(=S)Nc1ccc(Br)cc1)c1ccc2c(c1)Sc1ccccc1O2 | > 100 | > 100 |  | > 100 | > 100 | > 100 |  |  | > 100
15 | COc1ccc(N2C(=O)C3ON(Cc4ccc(CC(N)=O)cc4)C(c4c5ccccc5c(C)c5ccccc45)C3C2=O)cc1 (configuration not stated) |  | 78 |  | > 100 | > 100 | > 100 | 96.5 | 48.8 | 37.3
16 | CC1=C[P+](c2ccccc2)(c2ccccc2)c2ccccc2O1 | 2.89 | > 100 |  | > 100 | 21.6 | 9.4 | > 100 | > 100 | > 100
17 | N=C1OC(CN2CCN(c3ccccc3)CC2)CN1C(=O)Nc1ccccc1 (configuration not stated) | > 100 | > 100 | > 100 | > 100 | > 100 |  | > 100 | > 100 | > 100
18 | Nc1cc(CO)cc(Nc2c3ccccc3nc3ccccc23)c1 | 23.8 | 73.1 |  | 31.3 | 24.8 | 32.2 | 29.7 | 31.4 | 32.3
19 | O=c1cc(NNc2ccccc2)[nH]c(=O)[nH]1 | 31.8 | > 100 | 39.9 |  | 29.3 | 30.9 | 29.5 |  | 
20 | CCOP(=O)(OCC)C(c1ccc(F)cc1)N(C(=O)NC(F)(F)F)c1ccc(F)cc1 (configuration not stated) | > 100 | > 100 | > 100 | > 100 | > 100 | > 100 |  | > 100 | > 100
21 | COP(=O)(OC)C(N)Cc1c[nH]c2ccccc12 (configuration not stated) | > 100 | > 100 | > 100 | > 100 | > 100 | > 100 | > 100 |  | > 100
22 | Cc1cc(=O)[nH]c2cc(NC(=O)C(C)NC(=O)C(C)NC(=O)C(C)NC(=O)OC(C)(C)C)ccc12 (configuration not stated) | > 15 | > 15 | > 15 | > 15 | > 15 |  | > 15 | > 15 | > 15
23 | COc1c(C(=O)/C(=N/Nc2ccc(C(=O)O)cc2)C(C)=O)c(O)cc2occc12 | > 100 | > 100 | > 100 | > 100 | > 100 | > 100 |  | > 100 | > 100
24 | O=c1c(NCc2ccccc2)c(C2(c3ccccc3F)SCCCS2)c1=O | > 100 | > 100 |  | > 100 | > 100 | > 100 | > 100 | > 100 | > 100
25 | O=C1/C(=C/c2cccc([N+](=O)[O-])c2)N=C(c2ccccc2)N1c1nc2ccc(Sc3ccccc3)cc2[nH]1 | 96.8 |  | > 100 | > 100 | > 100 |  | > 100 | > 100 | > 100
